Paper PMC5356695, “A phase 1 study of oral ridaforolimus in pediatric patients with advanced solid tumors” (Oncotarget, 2016)
Like-named read-outs stand apart in the source and are kept apart here.

What was measured:
clinical = conditions: for AUC(0-t) / half-life / concentration at 4 h / concentration at 8 h: human, whole blood
Description: Whole blood samples (2 mL each) for pharmacokinetic analyses were collected at the following time points: <5 minutes before dosing on days 1 through 5 and at 0.5, 1, 2, 4, 8, 24, and 72 hours after drug administration on day 5 of the first week of the first treatment cycle. Blood concentrations of ridaforolimus were determined using a validated liquid chromatography/tandem mass spectrometry assay as in previous ridaforolimus studies (Charles River Laboratories, Shrewsbury, MA). The pharmacokinetic parameters of AUC0–24h and elimination half-life (t1/2) were determined by noncompartmental modeling using WinNonlin software (Pharsight, Certara, Princeton, NJ).

[1] = tested on: heavily pretreated solid tumors; design: method as in PMID 23659969; conditions: cited from earlier work
[2] = tested on: advanced soft tissue and bone sarcomas; conditions: cited from earlier work
advanced solid tumors = assay: Antitumor activity, investigator assessment by RECIST v1.1; type: in vivo, human
Description: All patients were to have computed tomography or magnetic resonance imaging scans at baseline, every 2 cycles during treatment, and at the time of treatment discontinuation. Local investigator assessment of treatment response was performed using RECIST v1.1 [43].

[3] = design: method as in earlier work; conditions: 40 mg once daily 5 days per week, ref data on file with ARIAD Pharmaceuticals, Inc./Merck & Co.; cited from earlier work
[4] = tested on: adults with advanced solid tumors; conditions: cited from earlier work
[5] = 7 pediatric patients aged 13 to 17 years
[6] = 1 patient with pineoblastoma, 22 mg/m^2

CO[C@H]1C[C@@H]2CC[C@@H](C)[C@@](O)(O2)C(=O)C(=O)N2CCCC[C@H]2C(=O)O[C@H]([C@H](C)C[C@@H]2CC[C@@H](OP(C)(C)=O)[C@H](OC)C2)CC(=O)[C@H](C)/C=C(\C)[C@@H](O)[C@@H](OC)C(=O)[C@H](C)C[C@H](C)/C=C/C=C/C=C/1C [ridaforolimus]
Exposure (day 5 AUC0–24h) higher than adult target level (clinical; 28 mg/m^2 vs adult RP2D 40 mg (1,739 h•ng/mL)): approximately 34% | BSADN AUC, lower bound of 90% 1-sided confidence interval for geometric mean (clinical; 33 mg/m^2): 61.2 h•ng•m^2/(mL•mg) | C4h, lower bound of 90% 1-sided confidence interval for geometric mean (clinical; 33 mg/m^2): 154 ng/mL | C8h, lower bound of 90% 1-sided confidence interval for geometric mean (clinical; 33 mg/m^2): 100 ng/mL | Day 5 AUC0–24h, lower bound of 90% 1-sided confidence interval for geometric mean (clinical; 33 mg/m^2): 2,020 h•ng/mL | t1/2, lower bound of 90% 1-sided confidence interval for geometric mean (clinical; 33 mg/m^2): 23.0 h | BSADN AUC (AUC normalized by BSA-adjusted dose), geometric mean (clinical; 33 mg/m^2, n = 11): 69.8 h•ng•m^2/(mL•mg) | Exposure (day 5 AUC0–24h) higher than adult target level (clinical; 33 mg/m^2 vs adult RP2D 40 mg (1,739 h•ng/mL)): ~31% | AUC(0-t) (clinical; oral, 22 mg/m2): 1340 ng·h/mL | half-life (clinical; oral, 22 mg/m2, t1/2, arithmetic mean (SD), 22 mg/m^2, n = 3): 25.5 h | half-life (clinical; oral, 22 mg/m2, t1/2, geometric mean (CV%), 22 mg/m^2, n = 3): 25.5 h | half-life (clinical; oral, 22 mg/m2, t1/2, median (range), 22 mg/m^2, n = 3): 24.5 h | concentration at 4 h (clinical; oral, 22 mg/m^2, C4h, arithmetic mean (SD), day 5, 22 mg/m^2, n = 4): 139 ng/mL | concentration at 4 h (clinical; oral, 22 mg/m^2, C4h, geometric mean (CV%), day 5, 22 mg/m^2, n = 4): 131 ng/mL | concentration at 8 h (clinical; oral, 22 mg/m^2, C8h, arithmetic mean (SD), day 5, 22 mg/m^2, n = 4): 74 ng/mL | concentration at 8 h (clinical; oral, 22 mg/m^2, C8h, geometric mean (CV%), day 5, 22 mg/m^2, n = 4): 71 ng/mL | AUC(0-t) (clinical; oral, 28 mg/m2): 2330 ng·h/mL | half-life (clinical; oral, 28 mg/m2, t1/2, arithmetic mean (SD), 28 mg/m^2, n = 3): 28.2 h | half-life (clinical; oral, 28 mg/m2, t1/2, geometric mean (CV%), 28 mg/m^2, n = 3): 27.2 h | half-life (clinical; oral, 28 mg/m2, t1/2, median (range), 28 mg/m^2, n = 3): 26.5 h | concentration at 4 h (clinical; oral, 28 mg/m^2, C4h, arithmetic mean (SD), day 5, 28 mg/m^2, n = 3): 228 ng/mL | concentration at 4 h (clinical; oral, 28 mg/m^2, C4h, geometric mean (CV%), day 5, 28 mg/m^2, n = 3): 227 ng/mL | concentration at 8 h (clinical; oral, 28 mg/m^2, C8h, arithmetic mean (SD), day 5, 28 mg/m^2, n = 3): 119 ng/mL | concentration at 8 h (clinical; oral, 28 mg/m^2, C8h, geometric mean (CV%), day 5, 28 mg/m^2, n = 3): 116 ng/mL | AUC(0-t) (clinical; oral, 33 mg/m2): 2280 ng·h/mL | half-life (clinical; oral, 33 mg/m2, t1/2, arithmetic mean (SD), 33 mg/m^2, n = 9): 26.9 h | half-life (clinical; oral, 33 mg/m2, t1/2, geometric mean (CV%), 33 mg/m^2, n = 9): 26 h | half-life (clinical; oral, 33 mg/m2, t1/2, median (range), 33 mg/m^2, n = 9): 24.9 h | concentration at 4 h (clinical; oral, 33 mg/m^2, C4h, arithmetic mean (SD), day 5, 33 mg/m^2, n = 11): 200 ng/mL | concentration at 4 h (clinical; oral, 33 mg/m^2, C4h, geometric mean (CV%), day 5, 33 mg/m^2, n = 11): 184 ng/mL | concentration at 8 h (clinical; oral, 33 mg/m^2, C8h, arithmetic mean (SD), day 5, 33 mg/m^2, n = 12): 118 ng/mL | concentration at 8 h (clinical; oral, 33 mg/m^2, C8h, geometric mean (CV%), day 5, 33 mg/m^2, n = 12): 113 ng/mL | half-life (clinical; oral, Mean (geometric) elimination half-lives, independent of dose level): 26 to 27 h | Steady state from trough concentrations (predose days 1 through 5) (clinical; oral once daily): steady-state concentrations had been achieved at day 5 | Lag before absorption after dosing (clinical; oral, all dose levels): approximately 2 hours | Time of highest blood concentrations after dosing (clinical; oral, all dose levels): ~4 h | Stable disease in patients with central nervous system tumors ([1]; intravenous 8-16 mg/m^2): 4 of 6 | Stable disease in patients with sarcomas ([1]; intravenous 8-16 mg/m^2): 2 of 8 | Patients with stable disease / clinical benefit ([1]; intravenous 8-16 mg/m^2 daily for 5 consecutive days every other week, of 15 evaluable (40%)): 6 patients | DLTs ([1]; intravenous 8–16 mg/m^2 daily for 5 consecutive days every other week): no DLTs were observed | Patients with partial response [2, 5]: 1 | Patients with progressive disease [2, 5]: 2 | Patients with stable disease [2, 5]: 4 | Reduction of risk of progression or death compared with placebo ([2]; oral, after benefit from preceding chemotherapy): 28% | Patients discontinued due to progressive disease (advanced solid tumors; 33 mg/m^2 (n = 13), 77%): 10 patients | Progression-free survival (advanced solid tumors; 1 patient with diffuse intrinsic pontine glioma): > 42 months | Duration of stable disease (advanced solid tumors; 1 patient with diffuse intrinsic pontine glioma, 33 mg/m^2, as of January 2016): 46 cycles | Duration of stable disease (advanced solid tumors; [6]): 12 cycles | Progression-free survival (advanced solid tumors; [6]): 12.8 months | Partial or complete response (advanced solid tumors; all patients, N = 20): None of the patients had a partial or complete response | Patients with evidence of clinical benefit (advanced solid tumors; of the 20 treated pediatric patients (10%)): 2 patients | Day 5 AUC0–24h in adults, estimated geometric mean [3]: 1,739 h•ng/mL | MTD ([4]; intravenous): 18.75 mg/day | Adult RP2D ([4]; oral, once daily for 5 days per week): 40 mg | MTD ([4]; oral, once daily × 5 days per week regimen): 40 mg
